The record followed here is ChEMBL document CHEMBL1128069, “Balanced AT1 and AT2 angiotensin II antagonists. I. New orally active 5-carboxyl imidazolyl biphenyl sulfonylureas” (Bioorg Med Chem Lett, 1995).

By IC50 is commonly meant the point on the concentration scale where inhibition reaches its midpoint.

SMILES strings stand for the structures. A value given as a limit tells only on which side of the number the result lay.

The target of experiment [1] is T1, Angiotensin II receptor (AT-1) type-1 (Rattus norvegicus, UniProt P29089+P25095).
T1 sequence (P29089 whole entry): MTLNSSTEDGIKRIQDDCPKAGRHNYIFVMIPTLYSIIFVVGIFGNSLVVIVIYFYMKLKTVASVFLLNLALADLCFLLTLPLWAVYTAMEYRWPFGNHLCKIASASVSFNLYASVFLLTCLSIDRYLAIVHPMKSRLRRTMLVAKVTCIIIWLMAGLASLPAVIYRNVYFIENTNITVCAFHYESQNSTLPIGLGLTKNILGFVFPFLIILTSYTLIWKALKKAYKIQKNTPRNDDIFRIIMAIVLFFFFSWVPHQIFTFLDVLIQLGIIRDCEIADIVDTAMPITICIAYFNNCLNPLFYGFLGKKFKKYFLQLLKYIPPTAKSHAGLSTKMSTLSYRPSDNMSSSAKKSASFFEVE
T1 sequence (P25095 whole entry): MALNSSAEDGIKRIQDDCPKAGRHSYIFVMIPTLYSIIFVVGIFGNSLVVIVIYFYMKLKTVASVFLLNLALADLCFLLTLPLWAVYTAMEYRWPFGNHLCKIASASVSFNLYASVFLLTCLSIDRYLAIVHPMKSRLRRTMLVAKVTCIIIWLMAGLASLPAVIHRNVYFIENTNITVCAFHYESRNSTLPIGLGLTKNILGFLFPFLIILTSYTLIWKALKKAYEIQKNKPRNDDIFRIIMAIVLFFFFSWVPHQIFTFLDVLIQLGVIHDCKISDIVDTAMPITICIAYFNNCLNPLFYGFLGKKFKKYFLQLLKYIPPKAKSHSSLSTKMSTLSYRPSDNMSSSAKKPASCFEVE
The experiment in a line: In vitro displacement of [125I]angiotensin II from rat liver (Angiotensin 1 receptor) membrane preparation. For orientation: Loss of bound radioactivity is the signal in a displacement assay; it reports binding, not function.

The target of experiment [2] is T2, Angiotensin II receptor (Rattus norvegicus) (UniProt P29089+P25095+P35351). The experiment in a line: In vivo inhibition of pressor response induced by Angiotensin II (AII) following intravenous administration to pithed rats. The class given is functional, organism-based.
For experiment [3], the target named is T2, Angiotensin II receptor (Rattus norvegicus). Briefly: In vivo inhibition of pressor response induced by Angiotensin II (AII) following oral administration to pithed rats. The class given is functional, organism-based.

T2 sequence (P35351 whole entry, looked up, one chain of several): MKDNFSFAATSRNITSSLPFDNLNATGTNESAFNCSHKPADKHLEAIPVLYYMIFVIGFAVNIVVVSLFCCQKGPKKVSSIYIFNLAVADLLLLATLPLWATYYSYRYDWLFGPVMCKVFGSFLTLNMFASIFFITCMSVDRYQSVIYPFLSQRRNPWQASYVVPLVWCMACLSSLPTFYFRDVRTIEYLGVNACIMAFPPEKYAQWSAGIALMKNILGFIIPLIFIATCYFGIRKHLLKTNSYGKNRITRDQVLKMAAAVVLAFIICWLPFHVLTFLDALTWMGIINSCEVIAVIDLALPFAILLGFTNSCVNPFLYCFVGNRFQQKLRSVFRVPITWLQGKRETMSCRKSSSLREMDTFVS

The compound `CCCc1nc(SC(F)F)c(C(=O)O)n1Cc1ccc(-c2ccccc2S(=O)(=O)NC(=O)Cc2ccc3c(c2)OCO3)cc1` gave an IC50 in experiment [1] of 0.3 nM. For the same compound, the figures for the ID50 in experiment [2] and in experiment [3] were 0.35 mg/kg and 10 mg/kg, respectively.
For `CCCCc1nc(SC)c(C(=O)O)n1Cc1ccc(-c2ccccc2S(=O)(=O)NC(=O)NCCC)cc1`, in that order: 0.5 nM, 0.11 mg/kg and 0.7 mg/kg.
For `CCCc1nc(SC(F)F)c(C(=O)O)n1Cc1ccc(-c2ccccc2S(=O)(=O)NC(=O)CCc2ccccc2)cc1`, in experiment [1], the IC50 amounted to 0.1 nM. The compound also gave an ID50 in experiment [2] of 0.64 mg/kg.
Take `CCCc1nc(SC(F)F)c(C(=O)O)n1Cc1ccc(-c2ccccc2S(=O)(=O)NC(=O)CCCc2ccccc2)cc1`: the IC50 in experiment [1] is listed as 0.7 nM. For the same compound, the ID50 in experiment [2] worked out at 0.52 mg/kg.
`CCCCc1nc(SC(F)F)c(C(=O)O)n1Cc1ccc(-c2ccccc2S(=O)(=O)NC(=O)Cc2ccccc2)cc1`: the IC50 in experiment [1] was 0.15 nM. For the same compound, the ID50 in experiment [2] was determined as 0.36 mg/kg; in experiment [3] it was 2.2 mg/kg.
In turn, `CCCc1nc(SC(F)F)c(C(=O)O)n1Cc1ccc(-c2ccccc2S(=O)(=O)NC(=O)CC2CCCCC2)cc1` registered an IC50 in experiment [1] of 0.07 nM. The ID50 in experiment [2] amounted to 0.22 mg/kg; in experiment [3], 1.1 mg/kg.
`CCCc1nc(SC)c(C(=O)O)n1Cc1ccc(-c2ccccc2S(=O)(=O)NC(=O)NCc2cccs2)cc1` showed an IC50 in experiment [1] of 0.1 nM. This compound also registered an ID50 in experiment [3] of 1 mg/kg.
For `CCCCc1nc(SC)c(C(=O)O)n1Cc1ccc(-c2ccccc2S(=O)(=O)NC(=O)N(c2ccccc2)c2ccccc2)cc1`, in experiment [1], the IC50 was 1.2 nM. In experiment [2], this compound registered an ID50 of 5.8 mg/kg.
Turning to `CCCc1nc(SC)c(C(=O)O)n1Cc1ccc(-c2ccccc2S(=O)(=O)NC(=O)NCc2ccccc2)cc1`, in experiment [1], the IC50 is 0.2 nM. Also, the figures for the ID50 in experiment [2] and in experiment [3] were 0.22 mg/kg and 1.4 mg/kg, respectively.
The compound `CCCc1nc(SC)c(C(=O)O)n1Cc1ccc(-c2ccccc2S(=O)(=O)NC(=O)Nc2ccccc2)cc1` returned a half-maximal inhibitory concentration (IC50) in experiment [1] of 2.3 nM. The ID50 in experiment [2] stood at 0.52 mg/kg.
For `CCCc1nc(SC(F)F)c(C(=O)O)n1Cc1ccc(-c2ccccc2S(=O)(=O)NC(=O)Cc2ccc(F)cc2)cc1`, in that order: 0.1 nM and 0.43 mg/kg.
Regarding `CCCCc1nc(SC(F)F)c(C(=O)O)n1Cc1ccc(-c2ccccc2S(=O)(=O)NC(=O)CCC)cc1`, the IC50 in experiment [1] stood at 0.5 nM. Besides, the ID50 came to 0.09 mg/kg in experiment [2] and 0.8 mg/kg in experiment [3].
For `CCCc1nc(SC)c(C(=O)O)n1Cc1ccc(-c2ccccc2S(=O)(=O)NC(=O)NC2CCCCC2)cc1`, in experiment [1], the IC50 is on record as 0.5 nM.
Take `CCc1nc(SC)c(C(=O)O)n1Cc1ccc(-c2ccccc2S(=O)(=O)NC(=O)NCc2ccccc2)cc1`: the IC50 in experiment [1] was 0.1 nM. The ID50 in experiment [2] amounted to 1.37 mg/kg.
For `CCCCc1nc(SC)c(C(=O)O)n1Cc1ccc(-c2ccccc2S(=O)(=O)NC(=O)NCC2CCCCC2)cc1`, in that order: 0.1 nM and 0.35 mg/kg.
`CCCc1nc(SC(F)F)c(C(=O)O)n1Cc1ccc(-c2ccccc2S(=O)(=O)NC(=O)Cc2ccc3ccccc3c2)cc1` had an IC50 in experiment [1] of 0.1 nM.
As for `CCCc1nc(SC(F)F)c(C(=O)O)n1Cc1ccc(-c2ccccc2S(=O)(=O)NC(=O)CCc2cccs2)cc1`, the IC50 in experiment [1] was 0.03 nM. Besides, the ID50 in experiment [2] is 0.33 mg/kg; in experiment [3] it was 3.1 mg/kg.
On the same counts, the results for `CCCc1nc(SC(F)F)c(C(=O)O)n1Cc1ccc(-c2ccccc2S(=O)(=O)NC(=O)Cc2ccccc2)cc1` are 0.2 nM, 0.26 mg/kg and 2 mg/kg.
The compound `CCCCNC(=O)NS(=O)(=O)c1ccccc1-c1ccc(Cn2c(CCCC)nc(SC)c2C(=O)O)cc1` yielded an IC50 in experiment [1] of 0.2 nM. For the same compound, the values for the ID50 in experiment [2] and in experiment [3] were 0.09 mg/kg and 0.2 mg/kg, respectively.
`CCCc1nc(SC(F)F)c(C(=O)O)n1Cc1ccc(-c2ccccc2S(=O)(=O)NC(=O)Cc2ccccc2Cl)cc1` had an IC50 in experiment [1] of 0.3 nM. In experiment [2], the ID50 is 0.8 mg/kg.
In experiment [1], `CCCCc1nc(SC)c(C(=O)O)n1Cc1ccc(-c2ccccc2S(=O)(=O)NC(=O)NC(c2ccccc2)c2ccccc2)cc1` returned an IC50 of 0.4 nM.
The same measure, in the same setting: next, `CCCCc1nc(SC)c(C(=O)O)n1Cc1ccc(-c2ccccc2S(=O)(=O)NC(=O)NCc2ccccc2)cc1`: 0.1 nM.
As for `CCCc1nc(SC)c(C(=O)O)n1Cc1ccc(-c2ccccc2S(=O)(=O)NC(=O)NCC2CCCCC2)cc1`, the IC50 in experiment [1] stood at 0.1 nM. In addition, the ID50 in experiment [2] stood at 0.3 mg/kg; in experiment [3] it was 1.5 mg/kg.
On the same counts, the results for `CCc1nc(SC)c(C(=O)O)n1Cc1ccc(-c2ccccc2S(=O)(=O)NC(=O)NCC2CCCCC2)cc1` are 1.3 nM, 1.84 mg/kg and above 10 mg/kg.
For `CCCCc1nc(SC)c(C(=O)O)n1Cc1ccc(-c2ccccc2S(=O)(=O)NC(=O)NCC)cc1`, in that order: 0.2 nM, 0.17 mg/kg and 1.1 mg/kg.
`CCCc1nc(SC)c(C(=O)O)n1Cc1ccc(-c2ccccc2S(=O)(=O)NC(=O)NCC2CCCC2)cc1` returned an IC50 in experiment [1] of 0.1 nM. The ID50 in experiment [3] is 1 mg/kg.
As for `CCCCc1nc(SC(F)F)c(C(=O)O)n1Cc1ccc(-c2ccccc2S(=O)(=O)NC(=O)CC2CCCCC2)cc1`, in experiment [1], the IC50 is on record as 0.2 nM. For the same compound, the ID50 in experiment [2] was 0.6 mg/kg; in experiment [3] it was 1.7 mg/kg.
The compound `CCCc1nc(SC)c(C(=O)O)n1Cc1ccc(-c2ccccc2S(=O)(=O)NC(=O)Nc2ccc(C)cc2)cc1` displayed an IC50 in experiment [1] of 1 nM. For the same compound, in experiment [2], the ID50 worked out at 0.87 mg/kg.
`CCCc1nc(SC(F)F)c(C(=O)O)n1Cc1ccc(-c2ccccc2S(=O)(=O)NC(=O)Cc2cccs2)cc1` came in with an IC50 in experiment [1] of 0.07 nM. Further, the ID50 in experiment [2] came to 0.13 mg/kg; in experiment [3], 3 mg/kg.
For `CCCCc1nc(SC)c(C(=O)O)n1Cc1ccc(-c2ccccc2S(=O)(=O)NC(=O)NC)cc1`, in that order: 1.9 nM, 0.27 mg/kg and 4.9 mg/kg.
Consider `CCCc1nc(SC(F)F)c(C(=O)O)n1Cc1ccc(-c2ccccc2S(=O)(=O)NC(=O)C(C)c2ccccc2)cc1` (configuration not stated), for which, in experiment [1], the IC50 amounted to 0.3 nM.
